Experimental findings from US9682965B2, “Fumagillol heterocyclic compounds and methods of making and using same” (Zafgen, Inc., priority 2015, dated 2017) are described below.

Counter-ions that a name gives are not always drawn.

In the assay the test system is Diet Induced Obese (DIO) C57BL/6 mice. Put plainly: 10 day DIO mouse model (body weight, food intake, hematology, blood chemistry). The format is in vivo. The following applies: 240 h; DIO mouse, 0.3 mpk sc, once a day for 10 days; read-out: DIO Mouse 10-day weight loss vs vehicle. The text has this:
The objective of this study design was to investigate the efficacy of disclosed compounds in a 10 day DIO mouse model. Effects on body weight, food intake, hematology and blood chemistry were the primary readouts of this study design. […] Mice were fed Research Diets D12492 (60% Kcal fat, 20% Kcal carbohydrate and 20% protein) and provided water ad libitum. DIO mice were received and housed in the facility for approximately two weeks prior to the start of test article administration. On Day −4 or −3, mice were randomized into study groups based on body weight and body weights were continued to be recorded daily for the duration of the study. Daily food intake was assessed starting on Study Day −2 by weighing of the food with hopper together to avoid loss of food in transfer.
Compounds were formulated into a 100% DMSO stock (at 9 mg/mL) prior to the start, and further diluted into the target working concentration using the vehicle of 10% DMSO in water. Prior to test article administration, starting on Day −3 a dosing acclimation occured with all animals receiving a subcutaneous injection of vehicle (10% DMSO) only for 3 days. Starting on Day 1, test compounds or vehicle were administered based on individual body weight, subcutaneously, once a day for 10 days. All mice were sacrificed on Day 11, 24 hours following the final dosing on Day 10. After sacrifice, whole blood was collected and analyzed for hematology and blood chemistry parameters.
Compounds were tested vs. vehicle at various doses (1.0, 0.5, 0.3, 0.1, 0.03 mpk sc (mg per kg animal weight delivered subcutaneously), and the results are shown in Table 2 below.

As to `CO[C@@H]1[C@H](OC(=O)N2CC(CCN3CCCC3)C2)CC[C@]2(CO2)[C@H]1[C@@]1(C)O[C@@H]1CC=C(C)C` [Example 3, (3R,4S,5S,6R)-5-methoxy-4-((2R,3R)-2-methyl-3-(3-methylbut-2-enyl)oxiran-2-yl)-1-oxaspiro[2.5]octan-6-yl 3-(2-(pyrrolidin-1-yl)ethyl)azetidine-1-carboxylate formate], the inhibition in vivo at 0.3 mg/kg came out at 5.9%.

Turning to `CO[C@@H]1[C@H](OC(=O)N2CC(CCN3CCS(=O)(=O)CC3)C2)CC[C@]2(CO2)[C@H]1[C@@]1(C)O[C@@H]1CC=C(C)C` [Example 10, (3R,4S,5S,6R)-5-methoxy-4-((2R,3R)-2-methyl-3-(3-methylbut-2-enyl)oxiran-2-yl)-1-oxaspiro[2.5]octan-6-yl 3-(2-thiomorpholinoethyl)azetidine 2,2-dioxide-1-carboxylate], the inhibition in vivo at 0.3 mg/kg is 1.8%. The figure for `CO[C@@H]1[C@H](OC(=O)N2CC(CCN3CCN(C)C(=O)C3)C2)CC[C@]2(CO2)[C@H]1[C@@]1(C)O[C@@H]1CC=C(C)C` [Example 11, (3R,4S,5S,6R)-5-methoxy-4-((2R,3R)-2-methyl-3-(3-methylbut-2-enyl)oxiran-2-yl)-1-oxaspiro[2.5]octan-6-yl 3-(2-(4-methyl-3-oxopiperazin-1-yl)ethyl)azetidine-1-carboxylate formate] is 2%.

For `CO[C@@H]1[C@H](OC(=O)N2CC(CCN3CCNC(=O)C3)C2)CC[C@]2(CO2)[C@H]1[C@@]1(C)O[C@@H]1CC=C(C)C` [Example 12, (3R,4S,5S,6R)-5-methoxy-4-((2R,3R)-2-methyl-3-(3-methylbut-2-enyl)oxiran-2-yl)-1-oxaspiro[2.5]octan-6-yl 3-(2-(3-oxopiperazin-1-yl)ethyl)azetidine-1-carboxylate], the inhibition in vivo at 0.3 mg/kg was determined as 1.1%. Consider `CO[C@@H]1[C@H](OC(=O)N2CC(CCN3CCC(F)(F)CC3)C2)CC[C@]2(CO2)[C@H]1[C@@]1(C)O[C@@H]1CC=C(C)C` [Example 13, (3R,4S,5S,6R)-5-methoxy-4-((2R,3R)-2-methyl-3-(3-methylbut-2-enyl)oxiran-2-yl)-1-oxaspiro[2.5]octan-6-yl 3-(2-(4,4-difluoropiperidin-1-yl)ethyl)azetidine-1-carboxylate], for which the inhibition in vivo at 0.3 mg/kg was found to be 18.2%. For `CO[C@@H]1[C@H](OC(=O)N2CC(CCN3CC(C)(C#N)C3)C2)CC[C@]2(CO2)[C@H]1[C@@]1(C)O[C@@H]1CC=C(C)C` [Example 14, (3R,4S,5S,6R)-5-methoxy-4-((2R,3R)-2-methyl-3-(3-methylbut-2-enyl)oxiran-2-yl)-1-oxaspiro[2.5]octan-6-yl 3-(2-(3-cyano-3-methylazetidin-1-yl)ethyl)azetidine-1-carboxylate], the inhibition in vivo at 0.3 mg/kg was 12.5%.

Regarding `CO[C@@H]1[C@H](OC(=O)N2CC(CCN3CCN(S(C)(=O)=O)CC3)C2)CC[C@]2(CO2)[C@H]1[C@@]1(C)O[C@@H]1CC=C(C)C` [Example 15, (3R,4S,5S,6R)-5-methoxy-4-((2R,3R)-2-methyl-3-(3-methylbut-2-enyl)oxiran-2-yl)-1-oxaspiro[2.5]octan-6-yl 3-(2-(4-(methylsulfonyl)piperazin-1-yl)ethyl)azetidine-1-carboxylate], the inhibition in vivo at 0.3 mg/kg was 0.1%. Turning to `CO[C@@H]1[C@H](OC(=O)N2CC(CCn3ccnc3)C2)CC[C@]2(CO2)[C@H]1[C@@]1(C)O[C@@H]1CC=C(C)C` [Example 18, (3R,4S,5S,6R)-5-methoxy-4-((2R,3R)-2-methyl-3-(3-methylbut-2-enyl)oxiran-2-yl)-1-oxaspiro[2.5]octan-6-yl 3-(2-(1H-imidazol-1-yl)ethyl)azetidine-1-carboxylate], the inhibition in vivo at 0.3 mg/kg worked out at 3%. The figure for `CO[C@@H]1[C@H](OC(=O)N2CC(CCN3CC(C(=O)N(C)C)C3)C2)CC[C@]2(CO2)[C@H]1[C@@]1(C)O[C@@H]1CC=C(C)C` [Example 19, (3R,4S,5S,6R)-5-methoxy-4-((2R,3R)-2-methyl-3-(3-methylbut-2-enyl)oxiran-2-yl)-1-oxaspiro[2.5]octan-6-yl 3-(2-(3-(dimethylcarbamoyl)azetidin-1-yl)ethyl)azetidine-1-carboxylate] is 6.7%.
